In US4199570A, “1-N-Hetero containing aminoglycoside derivatives” (Shionogi & Co., Ltd., priority 1977, dated 1980):
≈ marks a conversion by molar mass, not a printed value.

Legend:
[1] = tested on: Serratia marcescens MA-26; experiment: MIC (Table 2); details: MA26, read-out: Minimum Inhibitory Concentration (MIC)
Proteus inconstans In-27 = experiment: MIC (Table 2); type: cell-based; details: Providencia alcalifaciens, IN27, tobramycin resistant strain, read-out: Minimum Inhibitory Concentration (MIC)
[2] = tested on: Streptococcus pyogenes ATCC 10389; experiment: MIC (Table 2); details: ATCC10389, read-out: Minimum Inhibitory Concentration (MIC)
Proteus mirabilis Pm-5 = experiment: MIC (Table 2); details: PM5, read-out: Minimum Inhibitory Concentration (MIC)
Sarcina lutea PCI 1001 = experiment: MIC (Table 2); type: cell-based; details: Micrococcus luteus, PCI1001, read-out: Minimum Inhibitory Concentration (MIC)
[3] = tested on: Klebsiella pneumoniae Kl 38; experiment: MIC (Table 2); details: KL38, read-out: Minimum Inhibitory Concentration (MIC)
Escherichia coli TB-705 = experiment: MIC (Table 2); type: cell-based; details: TB705, read-out: Minimum Inhibitory Concentration (MIC)
[4] = tested on: Citrobactor freundii Ct-31; experiment: MIC (Table 2); details: read-out: Minimum Inhibitory Concentration (MIC)
[5] = tested on: Enterobacter cloacae CI-38; experiment: MIC (Table 2); details: CI38, read-out: Minimum Inhibitory Concentration (MIC)
[6] = tested on: Staphylococcus aureus 80285; experiment: MIC (Table 2); details: Staphylococcus aureus, 80285, read-out: Minimum Inhibitory Concentration (MIC)
[7] = tested on: Escherichia coli W-677/JR 66; experiment: MIC (Table 2); details: W677/JR66, read-out: Minimum Inhibitory Concentration (MIC)
[8] = tested on: Escherichia coli W-677/JR 214; experiment: MIC (Table 2); details: W677/JR214, read-out: Minimum Inhibitory Concentration (MIC)
[9] = tested on: Escherichia coli W-677/JR 762; experiment: MIC (Table 2); details: W677/JR762, read-out: Minimum Inhibitory Concentration (MIC)
[10] = tested on: Pseudomonas aeruginosa PP-6; experiment: MIC (Table 2); details: PP6, read-out: Minimum Inhibitory Concentration (MIC)
[11] = tested on: Escherichia coli W-677/JR-762; experiment: MIC (Table 3); details: W677/JR762, read-out: Minimum Inhibitory Concentration (MIC)
[12] = tested on: Streptococcus pyogenes C-203; experiment: MIC (Table 3); details: C203, read-out: Minimum Inhibitory Concentration (MIC)
[13] = tested on: Pseudomonas aeruginosa PP-6; experiment: MIC (Table 3); type: cell-based; details: PP6, read-out: Minimum Inhibitory Concentration (MIC)
Proteus mirabilis TB-617 = experiment: MIC (Table 3); type: cell-based; details: TB617, read-out: Minimum Inhibitory Concentration (MIC)
[14] = tested on: kanamycin A resistant strains; details: cited from earlier work
[15] = compared with kanamycin A; cited from earlier work

SMILES | MIC [1] [µg/mL] | MIC (Proteus inconstans In-27) [µg/mL] | MIC [2] [µg/mL] | MIC (Proteus mirabilis Pm-5) [µg/mL] | MIC (Sarcina lutea PCI 1001) [µg/mL] | MIC [3] [µg/mL] | MIC (Escherichia coli TB-705) [µg/mL] | MIC [4] [µg/mL] | MIC [5] [µg/mL] | MIC [6] [µg/mL] | MIC [7] [µg/mL] | MIC [8] [µg/mL] | MIC [9] [µg/mL] | MIC [10] [µg/mL] | MIC [11] [µg/mL] | MIC [12] [µg/mL] | MIC [13] [µg/mL] | MIC (Proteus mirabilis TB-617) [µg/mL] | effect against kanamycin A resistant strains [14] | toxicity [15]
NC[C@H]1O[C@H](O[C@H]2[C@H](O)[C@@H](O[C@H]3O[C@H](CO)[C@@H](O)[C@H](N)[C@H]3O)[C@H](N)C[C@@H]2N)[C@H](O)[C@@H](O)[C@@H]1O [KM-A, kanamycin A] | > 100 | > 100 | 100 (≈ 206 µM) | > 100 | 12.5 (≈ 25.8 µM) | > 100 | > 100 | > 100 | > 100 | > 100 | > 100 | > 100 | > 100 | > 100 | – | – | – | – | – | –
NC[C@H]1O[C@H](O[C@H]2[C@H](O)[C@@H](O[C@H]3O[C@H](CO)[C@@H](O)[C@H](N)[C@H]3O)[C@H](N)C[C@@H]2N)[C@H](N)C[C@@H]1O [TOB, tobramycin] | 50 (≈ 107 µM) | 12.5 (≈ 26.7 µM) | 25 (≈ 53.5 µM) | 12.5 (≈ 26.7 µM) | 12.5 (≈ 26.7 µM) | 1.56 (≈ 3.34 µM) | 6.25 (≈ 13.4 µM) | 3.13 (≈ 6.69 µM) | 0.78 (≈ 1.67 µM) | 0.78 (≈ 1.67 µM) | 25 (≈ 53.5 µM) | 100 (≈ 214 µM) | 100 (≈ 214 µM) | > 100 | 25 (≈ 53.5 µM) | 6.2 (≈ 13.3 µM) | 100 (≈ 214 µM) | 6.2 (≈ 13.3 µM) | – | –
NC[C@H]1O[C@H](O[C@H]2[C@H](O)[C@@H](O[C@H]3O[C@H](CO)[C@@H](O)[C@H](N)[C@H]3O)[C@H](NC(=O)C3(O)CNC3)C[C@@H]2N)[C@H](O)[C@@H](O)[C@@H]1O [Comp. (2), 1-N-(3-hydroxyazetidine-3-carbonyl)kanamycin A] | 12.5 (≈ 21.4 µM) | 6.25 (≈ 10.7 µM) | 50 (≈ 85.7 µM) | 6.25 (≈ 10.7 µM) | 12.5 (≈ 21.4 µM) | 1.56 (≈ 2.67 µM) | 12.5 (≈ 21.4 µM) | 3.13 (≈ 5.36 µM) | 3.13 (≈ 5.36 µM) | 12.5 (≈ 21.4 µM) | 6.25 (≈ 10.7 µM) | 3.13 (≈ 5.36 µM) | 12.5 (≈ 21.4 µM) | 6.25 (≈ 10.7 µM) | – | – | – | – | – | –
NCC[C@H](O)C(=O)N[C@@H]1C[C@H](N)[C@@H](O[C@H]2O[C@H](CN)[C@@H](O)[C@H](O)[C@H]2O)[C@H](O)[C@H]1O[C@H]1O[C@H](CO)[C@@H](O)[C@H](N)[C@H]1O [amikacin] | – | – | – | – | – | – | – | – | – | – | – | – | – | – | – | – | – | – | effective against kanamycin A resistant strains | approximately the same as kanamycin A
NC[C@H]1O[C@H](O[C@H]2[C@H](O)[C@@H](O[C@H]3O[C@H](CO)[C@@H](O)[C@H](N)[C@H]3O)[C@H](NC(=O)C3(O)CNC3)C[C@@H]2N)[C@H](N)C[C@@H]1O [Comp. (1), 1-N-(3-hydroxyazetidine-3-carbonyl)tobramycin] | 6.25 (≈ 11 µM) | 12.5 (≈ 22.1 µM) | 25 (≈ 44.1 µM) | 1.56 (≈ 2.75 µM) | 3.13 (≈ 5.52 µM) | 0.78 (≈ 1.38 µM) | 3.13 (≈ 5.52 µM) | 1.56 (≈ 2.75 µM) | 0.78 (≈ 1.38 µM) | 0.78 (≈ 1.38 µM) | 3.13 (≈ 5.52 µM) | 3.13 (≈ 5.52 µM) | 3.13 (≈ 5.52 µM) | 3.13 (≈ 5.52 µM) | – | – | – | – | – | –
